Assay results as given in patent US8158682B2, “Instillation administration of capsaicinoids for the treatment of pain” (Vallinex, Inc., priority 2008, dated 2012).
Values joined by “and” are separate entries in the source; they are usually repeats but may differ in a detail not shown here. Equal values may be shown once. “Also recorded” adds a separate entry of the source.

Assays:
[1] = system: rat paw incision model; experiment: Rat paw incision model, postsurgical thermal hyperalgesia (thermal paw withdrawal latency); format: in vivo; details: for ED10 / ED20 / ED50: analgesic intensity, thermal hyperalgesia; for ED50: 5 minute intraoperative instillation
Procedure: (§1) Male Sprague-Dawley rats (Chrales River Laboratories, Inc., Wilimington, Mass., 225-250 g) were anesthetized with 2% isoflurane delivered via nose cone. Ten to 15 minutes before surgery, 100 μL of 2% lidocane was injected in the plantar surface of the right hind paw. A 1 centimeter incision (number 15 scalpel blade) was make through the skin, muscle, and fascia of the anesthetized paw, starting 5 mm from the proximal edge of the heel and extending toward the toes. After elevating the incised tissue, 20 μL of capsaicin formulation or vehicle were instilled into the surgical incision, allowed to dwell for pre-specified times, and then removed via aspiration using a cotton swab. The incision was apposed with 4 single interrupted mattress sutures of 5-0 nylon thread.
(§2) Animals were tested on the day before surgery (baseline) and on days 1, 2, 3, and 6 after surgery. Thermal sensitivity was assessed by thermal paw withdrawal latency as described by Hargreaves et al. (Hargreaves et al., J. Pain 32:77-88 (1988)). Mechanical hyperalgesia was assessed by the “up-down” algorithm of Chaplan et al. (Chaplan et al., J. Neurosci. Methods 53:55-63 (1994)).
In this study, animals in the active treatment groups received an intraoperative instillation of capsaicin (5 μg per 20 μL 50% PEG-300) for the designated times. Animals in the control groups received 20 μL of 50% PEG-300 for 5 minutes (vehicle) or no intraoperative treatment (sham). Graph points represent mean values; error bars are ±SEM.
In the study, animals in the active treatment groups received 5 minute intraoperative instillations of capsaicin formulation (1.5 μg to 150 μg per 20 μL of 50% PEG-300). Animals in the control groups received 5 minute intraoperative instillations of 20 μL of 50% PEG-300 (vehicle) or 5 minute intraoperative instillations of 20 μL of 50% PEG-300 plus subcutaneous buprenorphine (50 μg/kg) 1 hour before behavioral testing (Bup). Bars represent mean values; error bars are ±SEM.
The experimental data from FIG. 2 were used to calculate analgesic intensity (AI) as follows: AI(%)=100×([PWLtreat−PWLbasal]/[cut-off−PWLbasal]), where PWLtreat was the paw withdrawal latency after capsaicin treatment, PWLbasal was the paw withdrawal latency on day 1 after vehicle treatment, and cut-of was 20 seconds. […] (CI=confidence interval)

[2] = system: osteotomy site; experiment: Femur osteotomy: histology and biomechanical testing (4-point bending); format: in vivo, rat
Procedure: (§3) Adult CD Charles River rats were anesthetized with isoflurane and oxygen. Extrafascicular instillation: The sciatic nerve was exposed by blunt dissection and 100 μl of test article was applied directly to the sciatic nerve). Treatment groups received either vehicle (25% PEG 300), 0.0083 mg capsaicin (≧98% pure) or 0.025 mg capsaicin dissolved in vehicle. […] Osteotomy: The lateral aspect of the right femur was exposed and cut at the midshaft using an oscillating saw. An intramedullary Kirshner wire was inserted for fracture reduction and the osteotomy site irrigated with 100 μl of the vehicle (20% PEG 300, 10 mM histidine and 5% (w/v) sucrose) or 0.5 mg capsaicin diluted in vehicle.
(§4) Histology: Rats were euthanized by intraperitoneal injection of sodium pentobarbital (90 mg/Kg) followed by transcardiac perfusion with 0.9% saline then 3% paraformaldehyde and 3% glutaraldehyde in 0.1 M phosphate buffer. The entire length of sciatic nerve was embedded in paraffin or plastic and representative sections were taken from the treatment site and proximal and distal sites and stained with hematoxylin and eosin (H&E). Sections were scored for neuronal and myelin integrity, appearance and inflammation.
Biomechanical Testing: Both osteotomized and contralateral whole femurs were tested in 4-point bending with a servohydrolic material test system (858 Mini Bionix) to determine the material properties of the cortical bone. Peak load, energy to break (area under the curve) and stiffness were derived. Peak load was measured as the maximum height of the load-displacement curve, and stiffness was measured as the slope of the linear portion of the load-displacement curve.
(§5) Statistics: Levene's test was used to assess homogeneity of group variances for each specified end point and for each data collection interval. If Levene's test was not significant (P>0.01), a pooled estimate of the variance (Means Square Error) was computed from a one-way analysis of variance (ANOVA) and utilized by Dunnett's comparison of each treatment group with the control group. If Levene's test was significant (P<0.01), comparisons with the control group were made using Welch's t-test with a Bonferroni correction.

[3] = system: rat paw incision model; experiment: Rat paw incision model, postsurgical mechanical hyperalgesia (paw withdrawal threshold, up-down); format: in vivo
Procedure: as §1, §2
In this study, animals in the active treatment groups received an intraoperative instillation of capsaicin (5 μg per 20 μL 50% PEG-300) for the designated times. Animals in the control groups received 20 μL of 50% PEG-300 for 5 minutes (vehicle). Graph points represent mean values; error bars are ±SEM.
In this study, animals in the active treatment groups received 5 minute intraoperative instillations of capsaicin (5, 15, or 75 μg per 20 μL of 50% PEG-300). Animals in the control groups received 5 minute intraoperative instillations of 20 μL of 50% PEG-300 (vehicle) or subcutaneous injection of buprenorphine (50 μg/kg) 1 hour before behavioral testing (Bup). Bars represent mean values; error bars are ±SEM.
In this study, animals in the active treatment groups received 5 minute intraoperative instillations of capsaicin (5, 15, or 75 μg per 20 μL of 50% PEG-300). Animals in the control groups received 5 minute intraoperative instillations of 20 μL of 50% PEG-300 (vehicle). Graph points represent mean values; error bars are ±SEM.

[4] = cited from earlier work
[5] = system: sciatic nerve; experiment: Extrafascicular instillation on sciatic nerve: body weight, behavioral testing, nerve histology; format: in vivo, rat
Procedure: as §3
Behavioral testing: Individual rats were placed in a black plexiglass observation box and parameters including posture, rearing, vocalization, bizarre behavior, mobility, and stereotypy were evaluated based on the methods of Moser et al. (Moser et al., Fundam. Appl. Toxicol. 11: 189-206 (1988)). Forelimb and hindlimb grip strength was measured using a strain gauge that recorded the maximum force in Kg as described by Meyer (Meyer et al. Neurobehav. Toxicol. 1:233-236 (1979) and Meyer and Ross (1966) U.S. Environmental Protection Agency, Wasington, D.C.) Hindlimb splay was quantitatively measured as described by Edwards et al. (Edwards et al., Toxicol Appl. Pharmacol. 40:589-591 (1977)). Thermal response was measured using the hot plate test as previously described by Ankier (Aniker Eur. J. Pharmacol. 27:1-4 (1974). The hot plate was set at 52° C. and the latency between placement of the animal on the heated surface and the first paw lick was recorded. The test was administered three times at predose and at days 3, 14 and 28 post-surgery and the values averaged.
as §4, §5

[6] = intraoperative instillation, rat paw incision model
[7] = 0.5 mg, right femur, vs vehicle (FIG. 14)

In the case of COc1cc(CNC(=O)CCCC/C=C/C(C)C)ccc1O [capsaicin, N-(4-hydroxy-3-methoxybenzyl)-8-methylnon-trans-6-enamide], the “dose dependence of reduction of postsurgical thermal hyperalgesia” value ([1]; 1.5 μg to 150 μg per 20 μL 50% PEG-300, 5 minute instillation (FIG. 2)) is reported as “dose-dependant; also recorded: dose-dependent”, the “postsurgical thermal hyperalgesia (PWL)” value ([1]; 5 μg per 20 μL 50% PEG-300, instillation 5 or 10 minutes, post-surgical days 1, 2, 3, vs vehicle and sham (FIG. 1)) is reported as “significantly lower thermal hyperalgesia; also recorded: reduces postsurgical thermal hyperalgesia” and the ED10 ([1]; day 1 after surgery) is reported as 3.46 µg. It also gave an ED20 ([1]; day 1 after surgery) of 7.77 µg, an ED50 ([1]; day 1 after surgery) of 31.01 µg and an ED10 ([1]; day 2 after surgery) of 2.99 µg. The ED20 ([1]; day 2 after surgery) was 8.38 µg, the ED50 ([1]; day 2 after surgery) was 48.53 µg and the ED10 ([1]; day 3 after surgery) was 1.84 µg. The ED20 ([1]; day 3 after surgery) was 6.09 µg, the ED50 ([1]; day 3 after surgery) was 47.09 µg and 47.08 µg and the “duration of sustained analgesia” value [1, 6] was “up to 6 days”. The “potency against thermal versus mechanical hyperalgesia” value [1, 6] was “higher potency against postsurgical thermal hyperalgesia than mechanical hyperalgesia”, the “osteotomy site histology (H&E)” value ([2]; 0.5 mg vs vehicle (FIG. 13)) was “show no differences” and the “general integrity of bone structure (AUC, energy to break)” value [2, 7] was “no difference”. For the same molecule, the peak load [2, 7] was “no difference”, the stiffness [2, 7] was “no difference” and the “adverse effects on wound and bone healing following osteotomy” value ([2]; instillation, summary) was “no observable adverse effects”. The “postsurgical mechanical hyperalgesia (PWT)” value ([3]; 5 μg per 20 μL 50% PEG-300, designated dwell times (FIG. 4)) was “did not reduce postsurgical mechanical hyperalgesia; also recorded: does not reduce postsurgical mechanical hyperalgesia”, the “postsurgical mechanical hyperalgesia (PWT)” value ([3]; 75 μg, 5 minute instillation, vs vehicle (FIG. 5)) was “produced significant analgesic effects relative to vehicle; also recorded: reduces postsurgical mechanical hyperalgesia” and the “postsurgical mechanical hyperalgesia (PWT) over time” value ([3]; 75 μg, 5 minute instillation, vs vehicle, days 1 and 3 (FIG. 6)) was “greater after an instillation of 75 μg capsaicin formulation than vehicle; also recorded: reduces postsurgical mechanical hyperalgesia”. For the same molecule, the “dose dependence of reduction of postsurgical mechanical hyperalgesia” value ([3]; 5, 15 or 75 μg per 20 μL 50% PEG-300, 5 minute instillation (FIG. 5)) was “dose-dependant”, the “solubility in organic solvents” value ([4]; alcohol, ether, benzene and chloroform) was “freely soluble” and the solubility in water ([4]; water) was “practically insoluble”. The “sciatic nerve histology (H&E), appearance” value ([5]; 0.025 mg extrafascicular instillation, 3 days or 28 days post treatment, vs sham operated (FIG. 12)) was “no difference in appearance”, the activity/arousal ([5]; extrafascicular instillation (FIG. 8)) was “does not effect activity/arousal” and the hindpaw splay ([5]; extrafascicular instillation (FIG. 10)) was “no effect on hindpaw splay”. For the same molecule, the “thermal withdrawal (hot plate, 52° C.)” value ([5]; extrafascicular instillation (FIG. 11)) was “no effect on thermal withdrawal”, the “adverse effects on structural integrity of exposed nerve” value ([5]; extrafascicular instillation, summary) was “no observable adverse effects” and the weight gain ([5]; extrafascicular instillation, first 10 post-operative days, vs sham-operated rats (FIG. 7)) was “reduces weight gain”. The hindpaw grip strength ([5]; extrafascicular instillation, post operative days 3 and 14 (FIG. 9)) was “decreases hindpaw grip strength”.
